In this assay the target is T1, β-glucocerebrosidase (GCase) (Homo sapiens, UniProt P04062).
T1 construct: gene GBA1
T1 sequence (P04062 40-536): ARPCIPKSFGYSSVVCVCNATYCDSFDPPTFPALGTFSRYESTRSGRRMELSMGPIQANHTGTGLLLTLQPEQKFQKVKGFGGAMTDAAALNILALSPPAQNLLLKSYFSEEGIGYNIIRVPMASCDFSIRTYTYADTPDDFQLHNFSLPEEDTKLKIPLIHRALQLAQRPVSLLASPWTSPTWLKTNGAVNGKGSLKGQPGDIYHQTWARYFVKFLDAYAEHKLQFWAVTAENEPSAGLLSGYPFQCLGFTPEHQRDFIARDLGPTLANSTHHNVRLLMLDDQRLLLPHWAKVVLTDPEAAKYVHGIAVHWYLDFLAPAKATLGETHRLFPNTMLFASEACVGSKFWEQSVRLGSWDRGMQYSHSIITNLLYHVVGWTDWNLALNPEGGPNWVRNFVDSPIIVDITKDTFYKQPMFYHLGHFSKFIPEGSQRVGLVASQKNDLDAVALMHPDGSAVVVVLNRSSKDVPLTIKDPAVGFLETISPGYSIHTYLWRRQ
The assay can be described thus: biochemical.

Usually Kd stands for the free concentration of one partner at which half of the binding sites on the other are occupied at equilibrium, for simple one-to-one binding. `OCCOCCN1CCN(C2=Nc3ccccc3Sc3ccccc32)CC1` [quetiapine] returned a Kd of 5 µM.

The record behind these values is PMC8525588, “Direct targeting of wild-type glucocerebrosidase by antipsychotic quetiapine improves pathogenic phenotypes in Parkinson’s disease models” (JCI Insight, 2021).
